Measurements published in paper PMC11420707, “Functional and Immunologic Mapping of Domains of the Reticulocyte-Binding Protein Plasmodium vivax PvRBP2a” (The Journal of Infectious Diseases, 2024).
pKd: −log10 of the molar value. Residues, ends and D or L forms follow the SMILES beside them. *: point of attachment. Biotin = O=C1N[C@H]2[C@H](CS[C@H]2CCCCC(=O)*)N1

Tests used:
[1] = molecular target: soluble recombinant CD98 protein (Homo sapiens, UniProt P08195); assay: biochemical
Experimental: PvRBP2a epitopes for reticulocyte and CD98 binding. […] Reticulocytes were blocked with the polyclonal rabbit anti-CD98 antibody (KE020) or a rabbit isotype control antibody for 15 minutes before staining with biotinylated peptide candidates and detection with streptavidin-APC. Reticulocytes were distinguished from normocytes via thiazole orange staining. […] (B) Candidate binding peptides were tested for direct binding to CD98 via biolayer interferometry. 2µM biotinylated peptides were loaded onto streptavidin-coated sensors, which was immersed in a solution of 200nM CD98 to assess binding. (C) Peptides with detectable binding in the initial binding screen were further analyzed for their binding kinetics to CD98 via biolayer interferometry, with 3 independent replicates. The mean and standard error for dissociation constant (KD), on-rate (ka) and off-rate (kd) are given.
Binding sensorgrams were collected on the Octet Red 96e system. Fresh streptavidin sensors were used without any regeneration step. Streptavidin sensor, without biotinylated peptide loading, but with maximum concentration of non-biotinylated CD98 was used as the reference. Kinetic binding assays were performed using Octet Data Acquisition version 10.0.1.3 at 37°C with orbital shaking speed of 1,000 rpm. The assay was carried out in PBS buffer supplemented with 0.05% Tween-20 and 1mg/mL BSA (PBST/BSA). For initial screening, the biosensor was sequentially dipped into wells containing 200µL of solution each: i) baseline, PBST/BSA (30 s), ii) loading, 2µM biotinylated peptide fragment or vehicle control (VC) (5 min), iii) washing, PBST/BSA (30 s), iv) blocking, 25µM biocytin (5 min) to minimize non-specific binding of CD98, v) washing, PBST/BSA (30 s), vi) association, 200 nM non-biotinylated CD98 (30 min) and vii) dissociation, PBST/BSA (15 min).

[2] = tested on: fresh human reticulocytes; assay: Reticulocyte-binding assay (flow cytometry); format: cell-based; details: 15 µg/mL biotinylated peptide, 37°C 1 hour; for binding to reticulocytes (% of reticulocytes bound): CD71-enriched cord blood reticulocytes, streptavidin-APC and thiazole orange, 2 independent replicates
Experimental: Fresh human cord blood was enriched for reticulocytes with CD71 microbeads and MACS columns (supplementary methods). Reticulocytes were washed twice with cold phosphate-buffered saline, added to 15 µg/mL of peptide solution, and incubated at 37°C for 1 hour. Reticulocytes were then stained with streptavidin-APC and thiazole orange at 37°C for 1 hour, washed, and acquired on a flow cytometer.
Reticulocytes were enriched from the human cord blood through the selection of CD71+ reticulocytes, using human CD71 microbeads (Miltenyi Biotec, clone AC108.1). Around 1-2ml of blood at 50% haematocrit in PBS was passed through a LS column. After two washing steps using PBS, the reticulocytes were stained with reticulocyte stain (Sigma Aldrich New Methylene Blue) and viewed under the microscope to ensure >80% purity of reticulocytes after selection.

[3] = tested on: sera from donors infected with P vivax; assay: ELISA of peptide antigenicity against donor sera; format: binding, human; details: for antigenicity against the seropositive sera mix: individual peptides, pooled sera of 20 P vivax-infected donors 1:267; for antigenic in seropositive cases (cases/donors): individual seropositive sera 1:1000, 20 donors
Text: We next sought to identify the immunodominant epitopes within the PvRBP2a23-767 CD98-binding domain. Groups of 5 adjacent peptides each were pooled and examined for antigenicity against a mix of sera from 20 donors infected with P vivax (positive by blood smear microscopy) via enzyme-linked immunosorbent assay (Figure 2A). Binding against at least 15 negative donors (non–P vivax exposed) was also examined to control for nonspecific binding. […] To confirm their antigenicity, these peptides were then examined against individual seropositive or seronegative sera. PepLib 3 and PepLib 53 were antigenic in a minority of seropositive cases (7/20 and 2/20, respectively; Supplementary Figure 3B), whereas PepLib 52 was antigenic in most seropositive cases (18/20; Figure 2B). Thus, we identified PepLib 52 (PvRBP2a431-448) as the most reactive linear B-cell epitope in the CD98-binding region of PvRBP2a.
Figure 2. Identification of antigenic and functional linear epitopes of PvRBP2a. A, Peptides were pooled into groups of 5 and coated on streptavidin plates. Pooled sera were added from donors infected with Plasmodium vivax. Following washing, binding of peptides to donor sera was quantified with an anti-human horseradish peroxidase secondary antibody. The baseline was determined to be the mean + 3 SD of the reactivity of the seronegative sample pool to all peptide pools, and peptide pools showing a greater optical density (OD) value were deemed immunoreactive. B, The antigenicity of the antigenic peptide hit, PepLib_52, was confirmed by plasma from 20 donors who were seropositive and 22 who were seronegative. C, The effect of PvRBP2a-derived linear epitope peptides on P vivax invasion was examined on 5 P vivax clinical isolates. Selected CD98-binding PvRBP2a peptide candidates that were in cluster A (PepLib_25, PepLib_49) or cluster B/immunodominant (PepLib_41, PepLib_52), as well as negative control peptides (PepLib_50, PepLib_56) and positive control monoclonal antibodies (anti-Duffy 2C3, anti-CD98 HBJ127), were tested for their ability to inhibit P vivax invasion into reticulocytes. One well without addition of peptide or antibody served as a control for measurement of baseline reinvasion level. *P < .05 by 2-tailed t test with Shapiro-Wilk normality test.
Streptavidin-coated plates (Pierce) were blocked with 1% casein/1% BSA in 0.1% PBST overnight at 4°C, then coated with blocked with PvRBP2a-derived biotinylated peptides at 1:1000 dilution (approximately 15ug/ml) in 0.2% casein/0.2% BSA at room temperature for 1 hour. Pooled or individual donor sera was then applied at 1:267 (pooled) or 1:1000 (individual) dilution in 0.2% casein/0.2% BSA at room temperature for 1 hour, followed by secondary goat […] IgG-HRP at 1:1000 dilution in 0.1% casein/0.1% BSA at room temperature for 1 hour, then TMB substrate (Surmodics, BioFX® TMB One Component HRP Microwell Substrate) incubation for 5 minutes.

[4] = tested on: P vivax invasion into human reticulocytes; assay: Inhibition of P vivax reticulocyte invasion; format: cell-based, Plasmodium vivax; details: peptide 100 µg/mL, 5 P vivax clinical isolates, parasitemia at 24 hours versus well without peptide
Experimental: • Antibodies: anti-CD98 mouse IgG1 mAb HBJ127 [8] (Absolute Antibody) and anti-human DARC mouse IG1 mAb 2C3 [9] (Absolute Antibody); working concentration, 25 µg/mL • Cluster A or B PvRBP2a peptides: PepLib 25, 41, 49, 52; working concentration, 100 µg/mL • Control PvRBP2a peptides: PepLib 50, 56; working concentration, 100 µg/mL
Fresh/frozen blood isolates of P vivax were matured in vitro and late stages concentrated with MACS LD columns. Purified infected red blood cells were mixed with cord blood–derived CD71+ reticulocytes (sorted with CD71 beads + MACS LS columns). Infected red blood cell–reticulocyte mixtures were each mixed with an antibody/peptide as stated previously. Wells without peptide/antibody served as controls. All groups were cultivated in vitro as described before. Smears were made at the start (H0) to ensure that ring-stage parasitemia was 0% and 24 hours later (H24) to determine parasitemia (10 000 red blood cells counted). Statistically significant differences were identified by 2-tailed paired t test with Shapiro-Wilk normality test, performed in Prism 10.1.2 (GraphPad).

[5] = molecular target: PepLib_49 (PvRBP2a_(407-424)) (Plasmodium vivax); assay: BLI; biotinylated peptides (2 µM) loaded onto streptavidin-coated sensors, immersed in a solution of 200nM CD98
[6] = molecular target: PepLib_21 (PvRBP2a_(183-200)) (Plasmodium vivax); assay: as above
[7] = molecular target: PepLib_40 (PvRBP2a_(335-352)) (Plasmodium vivax); assay: as above
[8] = molecular target: PepLib_36 (PvRBP2a_(303-320)) (Plasmodium vivax); assay: as above

Sequence of soluble recombinant CD98 protein (P08195 218-630): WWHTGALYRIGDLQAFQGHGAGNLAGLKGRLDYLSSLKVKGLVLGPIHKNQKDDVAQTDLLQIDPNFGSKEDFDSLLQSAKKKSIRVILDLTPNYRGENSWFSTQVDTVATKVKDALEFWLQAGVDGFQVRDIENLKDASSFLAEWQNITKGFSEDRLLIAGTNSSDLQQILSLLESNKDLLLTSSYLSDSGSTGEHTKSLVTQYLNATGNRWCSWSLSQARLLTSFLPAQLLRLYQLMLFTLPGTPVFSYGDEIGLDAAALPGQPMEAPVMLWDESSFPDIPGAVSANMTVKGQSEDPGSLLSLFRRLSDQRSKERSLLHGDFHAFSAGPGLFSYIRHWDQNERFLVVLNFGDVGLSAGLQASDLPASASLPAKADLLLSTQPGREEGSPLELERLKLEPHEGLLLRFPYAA

Compound: CC[C@H](C)[C@H](NC(=O)[C@H](CCC(=O)O)NC(=O)[C@H](C)NC(=O)[C@H](Cc1ccccc1)NC(=O)[C@H](Cc1ccc(O)cc1)NC(=O)[C@H](CC(N)=O)NC(=O)[C@H](CCSC)NC(=O)[C@H](CCC(N)=O)NC(=O)[C@@H](NC(=O)CNC(=O)[C@H](CO)NC(=O)CNC(=O)[C@H](CO)NC(=O)CCCC[C@@H]1SC[C@@H]2NC(=O)N[C@@H]21)C(C)C)C(=O)N[C@@H](CCCCN)C(=O)N[C@@H](Cc1ccc(O)cc1)C(=O)N[C@@H](Cc1ccc(O)cc1)C(=O)N[C@H](C(=O)N[C@H](C(=O)N[C@@H](Cc1ccc(O)cc1)C(=O)N[C@@H](Cc1c[nH]cn1)C(=O)N[C@@H](Cc1ccc(O)cc1)C(=O)N[C@@H](CCC(=O)O)C(=O)O)[C@@H](C)O)[C@@H](C)CC [PepLib_21] (Biotin-SGSGVQMNYFAEIKYYITYHYE-OH)
- pKd [1]: 7.26

Compound: CC[C@H](C)[C@H](NC(=O)[C@H](CCC(=O)O)NC(=O)[C@H](Cc1ccc(O)cc1)NC(=O)[C@@H](NC(=O)[C@H](CC(=O)O)NC(=O)[C@@H](NC(=O)[C@H](CCC(=O)O)NC(=O)[C@H](CS)NC(=O)CNC(=O)[C@H](CO)NC(=O)CNC(=O)[C@H](CO)NC(=O)CCCC[C@@H]1SC[C@@H]2NC(=O)N[C@@H]21)[C@@H](C)O)[C@@H](C)O)C(=O)N[C@@H](CCSC)C(=O)N[C@@H](CC(C)C)C(=O)N[C@@H](CCC(=O)O)C(=O)N[C@H](C(=O)N[C@@H](Cc1ccc(O)cc1)C(=O)N[C@H](C(=O)N[C@@H](CCC(=O)O)C(=O)N[C@@H](CCCNC(=N)N)C(=O)N[C@H](C(=O)N[C@@H](CCCCN)C(=O)O)C(C)C)C(C)C)[C@@H](C)CC [PepLib_36] (Biotin-SGSGCETDTYEIMLEIYVERVK-OH)
- pKd [1]: 7.32

Compound: CC[C@H](C)[C@H](NC(=O)[C@H](CCC(=O)O)NC(=O)[C@H](CCC(N)=O)NC(=O)[C@H](CCCCN)NC(=O)[C@@H](NC(=O)[C@H](CCCCN)NC(=O)[C@H](CC(C)C)NC(=O)[C@H](CCSC)NC(=O)[C@H](CC(C)C)NC(=O)[C@@H](NC(=O)[C@@H](NC(=O)CNC(=O)[C@H](CC(C)C)NC(=O)[C@H](CCC(N)=O)NC(=O)[C@H](CC(C)C)NC(=O)[C@H](CO)NC(=O)[C@H](C)NC(=O)[C@H](CCCCN)NC(=O)CNC(=O)[C@H](CO)NC(=O)CNC(=O)[C@H](CO)NC(=O)CCCC[C@@H]1SC[C@@H]2NC(=O)N[C@@H]21)C(C)C)[C@@H](C)O)C(C)C)C(=O)O [PepLib_40] (Biotin-SGSGKASLQLGVTLMLKVKQEI-OH)
- pKd [1]: 7.15

Compound: CC(C)C[C@H](NC(=O)[C@H](CO)NC(=O)[C@H](Cc1ccccc1)NC(=O)[C@H](CCCCN)NC(=O)[C@H](Cc1ccc(O)cc1)NC(=O)[C@@H](NC(=O)[C@H](C)NC(=O)[C@H](Cc1ccc(O)cc1)NC(=O)[C@H](Cc1ccccc1)NC(=O)[C@H](CC(N)=O)NC(=O)[C@H](C)NC(=O)[C@H](CO)NC(=O)[C@H](CC(=O)O)NC(=O)[C@H](Cc1ccccc1)NC(=O)[C@H](Cc1ccc(O)cc1)NC(=O)[C@H](CC(C)C)NC(=O)[C@H](CCCCN)NC(=O)[C@H](CCCCN)NC(=O)CNC(=O)[C@H](CO)NC(=O)CNC(=O)[C@H](CO)NC(=O)CCCC[C@@H]1SC[C@@H]2NC(=O)N[C@@H]21)[C@@H](C)O)C(=O)O [PepLib_49] (Biotin-SGSGKKLYFDSANFYATYKFSL-OH)
- pKd [1]: 7.04

Compound: ADYARYSNLQIIDIKSKY [PepLib_60, biotinylated 18-mer of the PvRBP2a23-767 peptide library]
- binding to reticulocytes (% of reticulocytes bound) [2]: ≥ 10%

Compound: KLLANLYNKLITYVSEKI [PepLib_53, biotinylated 18-mer of the PvRBP2a23-767 peptide library]
- antigenicity against the seropositive sera mix [3]: showed antigenicity
- antigenic in seropositive cases (cases/donors) [3]: 2/20
- binding to reticulocytes (% of reticulocytes bound) [2]: ≥ 10%

Compound: LYFISKSESMISEFEDTF [PepLib_56, biotinylated 18-mer of the PvRBP2a23-767 peptide library; negative control peptide]
- binding to reticulocytes (in words) [2]: do not show binding to reticulocytes
- inhibition of parasite invasion into reticulocytes, mean [4]: 50%

Compound: NFYATYKFSLKRADTTTA [PepLib_50, biotinylated 18-mer of the PvRBP2a23-767 peptide library; negative control peptide]
- binding to reticulocytes (in words) [2]: do not show binding to reticulocytes
- inhibition of parasite invasion into reticulocytes, mean [4]: 10.4%

Compound: PLMSSIQNQINSCVPKKA [PepLib_25, biotinylated 18-mer of the PvRBP2a23-767 peptide library]
- binding to reticulocytes (% of reticulocytes bound) [2]: ≥ 10%
- inhibition of parasite invasion into reticulocytes, mean [4]: 49.6%

Compound: TAALKEKGKLLANLYNKL [PepLib_52, biotinylated 18-mer of the PvRBP2a23-767 peptide library]
- antigenicity against the seropositive sera mix [3]: showed antigenicity
- antigenic in seropositive cases (cases/donors) [3]: 18/20
- binding to reticulocytes (in words) [2]: did not bind directly to reticulocytes
- inhibition of parasite invasion into reticulocytes, mean [4]: 60.2%

Compound: TLMLKVKQEIDNNVTISA [PepLib_41, biotinylated 18-mer of the PvRBP2a23-767 peptide library]
- binding to reticulocytes (% of reticulocytes bound) [2]: ≥ 10%
- inhibition of parasite invasion into reticulocytes, mean [4]: −1.1%

Compound: WPLQDSLNESDKFEYTNG [PepLib_3, biotinylated 18-mer of the PvRBP2a23-767 peptide library]
- antigenicity against the seropositive sera mix [3]: showed antigenicity
- antigenic in seropositive cases (cases/donors) [3]: 7/20

Compound: YVNYLSTLKASLQLGVTL [PepLib_39, biotinylated 18-mer of the PvRBP2a23-767 peptide library]
- binding to reticulocytes (% of reticulocytes bound) [2]: ≥ 10%

Compound: soluble recombinant CD98 protein (from UniProt P08195 1-529) (receptor)
- pKd [5]: 7.04
- pKd [6]: 7.26
- pKd [7]: 7.15
- pKd [8]: 7.32
